Data published in patent US6358885B1, “Substituted phenylheterocyclic herbicides” (Mississippi State University, priority 1992, dated 2002).

Key:
Assay in all cases: Test B preemergence/postemergence greenhouse plant response rating 0 to 10
[1] = system: rice; type: in vivo, Oryza sativa; conditions: for Plant response rating, Rice: 0 to 10 scale
Procedure, shortened: (§1)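 Test chemicals, dissolved in a non-phytotoxic solvent, were applied to soil at planting and, at the same time, over foliage of seedlings at the one to four leaf stage.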

[2] = system: soybean; type: in vivo, Glycine max; conditions: for Plant response rating, Soybean: 0 to 10 scale
Procedure, shortened: as §1

[3] = system: bedstraw; type: in vivo, Galium aparine; conditions: for Plant response rating, Bedstraw: 0 to 10 scale
Procedure, shortened: as §1

[4] = system: wheat; type: in vivo, Triticum aestivum; conditions: for Plant response rating, Wheat: 0 to 10 scale
Procedure, shortened: as §1

[5] = system: sugar beet; type: in vivo, Beta vulgaris; conditions: for Plant response rating, Sugar beet: 0 to 10 scale
Procedure, shortened: as §1

[6] = system: chickweed; type: in vivo, Stellaria media; conditions: for Plant response rating, Chickweed: 0 to 10 scale
Procedure, shortened: as §1

[7] = system: cocklebur; type: in vivo, Xanthium pensylvanicum; conditions: for Plant response rating, Cocklebur: 0 to 10 scale
Procedure, shortened: as §1

[8] = system: purple nutsedge; type: in vivo, Cyperus rotundus; conditions: for Plant response rating, Nutsedge: 0 to 10 scale
Procedure, shortened: as §1

[9] = system: corn; type: in vivo, Zea mays; conditions: for Plant response rating, Corn: 0 to 10 scale
Procedure, shortened: as §1

[10] = system: blackgrass; type: in vivo, Alopecurus myosuroides; conditions: for Plant response rating, Blackgrass: 0 to 10 scale
Procedure, shortened: as §1

[11] = system: cheatgrass; type: in vivo, Bromus secalinus; conditions: for Plant response rating, Cheatgrass: 0 to 10 scale
Procedure, shortened: as §1

[12] = system: crabgrass; type: in vivo, Digitaria spp.; conditions: for Plant response rating, Crabgrass: 0 to 10 scale
Procedure, shortened: as §1

[13] = system: rape; type: in vivo, Brassica napus; conditions: for Plant response rating, Rape: 0 to 10 scale
Procedure, shortened: as §1

[14] = system: giant foxtail; type: in vivo, Setaria faberii; conditions: for Plant response rating, Giant foxtail: 0 to 10 scale
Procedure, shortened: as §1

[15] = system: cotton; type: in vivo, Gossypium hirsutum; conditions: for Plant response rating, Cotton: 0 to 10 scale
Procedure, shortened: as §1

[16] = system: sorghum; type: in vivo, Sorghum bicolor; conditions: for Plant response rating, Sorghum: 0 to 10 scale
Procedure, shortened: as §1

[17] = system: velvetleaf; type: in vivo, Abutilon theophrasti; conditions: for Plant response rating, Velvetleaf: 0 to 10 scale
Procedure, shortened: as §1

[18] = system: wild oat; type: in vivo, Avena fatua; conditions: for Plant response rating, Wild oat: 0 to 10 scale
Procedure, shortened: as §1

[19] = system: lambsquarters; type: in vivo, Chenopodium album; conditions: for Plant response rating, Lambsquarter: 0 to 10 scale
Procedure, shortened: as §1

[20] = system: morningglory; type: in vivo, Ipomoea hederacea; conditions: for Plant response rating, Morningglory: 0 to 10 scale
Procedure, shortened: as §1

[21] = system: wild buckwheat; type: in vivo, Polygonum convolvulus; conditions: for Plant response rating, Wild buckwheat: 0 to 10 scale
Procedure, shortened: as §1

[22] = system: barnyardgrass; type: in vivo, Echinochloa crus-galli; conditions: for Plant response rating, Barnyardgrass: 0 to 10 scale
Procedure, shortened: as §1

[23] = system: barley; type: in vivo, Hordeum vulgare; conditions: for Plant response rating, Barley: 0 to 10 scale
Procedure, shortened: as §1

## CCOC(=O)COc1cc(-c2nn3c(c2Cl)CCCC3)c(Cl)cc1Cl [Compound 73]
[1]; POSTEMERGENCE, Rate 50 g/ha
  Plant response rating, Rice: 6
[1]; PREEMERGENCE, Rate 50 g/ha
  Plant response rating, Rice: 0
[1]; PREEMERGENCE, Rate 200 g/ha
  Plant response rating (0 to 10 scale), Rice: 0
[1]; Rate 200 g/ha, POSTEMERGENCE
  Plant response rating, Rice: 6
[2]; POSTEMERGENCE, Rate 50 g/ha
  Plant response rating, Soybean: 2
[2]; PREEMERGENCE, Rate 50 g/ha
  Plant response rating, Soybean: 0
[2]; PREEMERGENCE, Rate 200 g/ha
  Plant response rating (0 to 10 scale), Soybean: 0
[2]; Rate 200 g/ha, POSTEMERGENCE
  Plant response rating, Soybean: 5
[3]; POSTEMERGENCE, Rate 50 g/ha
  Plant response rating, Bedstraw: 7
[3]; PREEMERGENCE, Rate 50 g/ha
  Plant response rating, Bedstraw: 2
[3]; PREEMERGENCE, Rate 200 g/ha
  Plant response rating (0 to 10 scale), Bedstraw: 9
[3]; Rate 200 g/ha, POSTEMERGENCE
  Plant response rating, Bedstraw: 8
[4]; POSTEMERGENCE, Rate 50 g/ha
  Plant response rating, Wheat: 2
[4]; PREEMERGENCE, Rate 50 g/ha
  Plant response rating, Wheat: 0
[4]; PREEMERGENCE, Rate 200 g/ha
  Plant response rating (0 to 10 scale), Wheat: 2
[4]; Rate 200 g/ha, POSTEMERGENCE
  Plant response rating, Wheat: 4
[5]; POSTEMERGENCE, Rate 50 g/ha
  Plant response rating, Sugar beet: 10
[5]; PREEMERGENCE, Rate 50 g/ha
  Plant response rating, Sugar beet: 5
[5]; PREEMERGENCE, Rate 200 g/ha
  Plant response rating (0 to 10 scale), Sugar beet: 5
[5]; Rate 200 g/ha, POSTEMERGENCE
  Plant response rating, Sugar beet: 10
[6]; POSTEMERGENCE, Rate 50 g/ha
  Plant response rating, Chickweed: 2
[6]; PREEMERGENCE, Rate 50 g/ha
  Plant response rating, Chickweed: 2
[6]; PREEMERGENCE, Rate 200 g/ha
  Plant response rating (0 to 10 scale), Chickweed: 4
[6]; Rate 200 g/ha, POSTEMERGENCE
  Plant response rating, Chickweed: 3
[7]; POSTEMERGENCE, Rate 50 g/ha
  Plant response rating, Cocklebur: 8
[7]; PREEMERGENCE, Rate 50 g/ha
  Plant response rating, Cocklebur: 0
[7]; PREEMERGENCE, Rate 200 g/ha
  Plant response rating (0 to 10 scale), Cocklebur: 0
[7]; Rate 200 g/ha, POSTEMERGENCE
  Plant response rating, Cocklebur: 10
[8]; POSTEMERGENCE, Rate 50 g/ha
  Plant response rating, Nutsedge: 2
[8]; PREEMERGENCE, Rate 50 g/ha
  Plant response rating, Nutsedge: 0
[8]; PREEMERGENCE, Rate 200 g/ha
  Plant response rating (0 to 10 scale), Nutsedge: 0
[8]; Rate 200 g/ha, POSTEMERGENCE
  Plant response rating, Nutsedge: 3
[9]; POSTEMERGENCE, Rate 50 g/ha
  Plant response rating, Corn: 5
[9]; PREEMERGENCE, Rate 50 g/ha
  Plant response rating, Corn: 0
[9]; PREEMERGENCE, Rate 200 g/ha
  Plant response rating (0 to 10 scale), Corn: 0
[9]; Rate 200 g/ha, POSTEMERGENCE
  Plant response rating, Corn: 8
[10]; POSTEMERGENCE, Rate 50 g/ha
  Plant response rating, Blackgrass: 5
[10]; PREEMERGENCE, Rate 50 g/ha
  Plant response rating, Blackgrass: 0
[10]; PREEMERGENCE, Rate 200 g/ha
  Plant response rating (0 to 10 scale), Blackgrass: 0
[10]; Rate 200 g/ha, POSTEMERGENCE
  Plant response rating, Blackgrass: 5
[11]; POSTEMERGENCE, Rate 50 g/ha
  Plant response rating, Cheatgrass: 3
[11]; PREEMERGENCE, Rate 50 g/ha
  Plant response rating, Cheatgrass: 0
[11]; PREEMERGENCE, Rate 200 g/ha
  Plant response rating (0 to 10 scale), Cheatgrass: 2
[11]; Rate 200 g/ha, POSTEMERGENCE
  Plant response rating, Cheatgrass: 6
[12]; POSTEMERGENCE, Rate 50 g/ha
  Plant response rating, Crabgrass: 3
[12]; PREEMERGENCE, Rate 50 g/ha
  Plant response rating, Crabgrass: 0
[12]; PREEMERGENCE, Rate 200 g/ha
  Plant response rating (0 to 10 scale), Crabgrass: 0
[12]; Rate 200 g/ha, POSTEMERGENCE
  Plant response rating, Crabgrass: 6
[13]; POSTEMERGENCE, Rate 50 g/ha
  Plant response rating, Rape: 7
[13]; PREEMERGENCE, Rate 50 g/ha
  Plant response rating, Rape: 2
[13]; PREEMERGENCE, Rate 200 g/ha
  Plant response rating (0 to 10 scale), Rape: 2
[13]; Rate 200 g/ha, POSTEMERGENCE
  Plant response rating, Rape: 10
[14]; POSTEMERGENCE, Rate 50 g/ha
  Plant response rating, Giant foxtail: 5
[14]; PREEMERGENCE, Rate 50 g/ha
  Plant response rating, Giant foxtail: 0
[14]; PREEMERGENCE, Rate 200 g/ha
  Plant response rating (0 to 10 scale), Giant foxtail: 0
[14]; Rate 200 g/ha, POSTEMERGENCE
  Plant response rating, Giant foxtail: 5
[15]; POSTEMERGENCE, Rate 50 g/ha
  Plant response rating, Cotton: 10
[15]; PREEMERGENCE, Rate 50 g/ha
  Plant response rating, Cotton: 0
[15]; PREEMERGENCE, Rate 200 g/ha
  Plant response rating (0 to 10 scale), Cotton: 0
[15]; Rate 200 g/ha, POSTEMERGENCE
  Plant response rating, Cotton: 10
[16]; POSTEMERGENCE, Rate 50 g/ha
  Plant response rating, Sorghum: 4
[16]; PREEMERGENCE, Rate 50 g/ha
  Plant response rating, Sorghum: 0
[16]; PREEMERGENCE, Rate 200 g/ha
  Plant response rating (0 to 10 scale), Sorghum: 0
[16]; Rate 200 g/ha, POSTEMERGENCE
  Plant response rating, Sorghum: 5
[17]; POSTEMERGENCE, Rate 50 g/ha
  Plant response rating, Velvetleaf: 6
[17]; PREEMERGENCE, Rate 50 g/ha
  Plant response rating, Velvetleaf: 2
[17]; PREEMERGENCE, Rate 200 g/ha
  Plant response rating (0 to 10 scale), Velvetleaf: 7
[17]; Rate 200 g/ha, POSTEMERGENCE
  Plant response rating, Velvetleaf: 9
[18]; POSTEMERGENCE, Rate 50 g/ha
  Plant response rating, Wild oat: 1
[18]; PREEMERGENCE, Rate 50 g/ha
  Plant response rating, Wild oat: 0
[18]; PREEMERGENCE, Rate 200 g/ha
  Plant response rating (0 to 10 scale), Wild oat: 2
[18]; Rate 200 g/ha, POSTEMERGENCE
  Plant response rating, Wild oat: 1
[19]; POSTEMERGENCE, Rate 50 g/ha
  Plant response rating, Lambsquarter: 9
[19]; PREEMERGENCE, Rate 50 g/ha
  Plant response rating, Lambsquarter: 9
[19]; PREEMERGENCE, Rate 200 g/ha
  Plant response rating (0 to 10 scale), Lambsquarter: 10
[19]; Rate 200 g/ha, POSTEMERGENCE
  Plant response rating, Lambsquarter: 10
[20]; POSTEMERGENCE, Rate 50 g/ha
  Plant response rating, Morningglory: 10
[20]; PREEMERGENCE, Rate 50 g/ha
  Plant response rating, Morningglory: 0
[20]; PREEMERGENCE, Rate 200 g/ha
  Plant response rating (0 to 10 scale), Morningglory: 0
[20]; Rate 200 g/ha, POSTEMERGENCE
  Plant response rating, Morningglory: 9
[21]; POSTEMERGENCE, Rate 50 g/ha
  Plant response rating, Wild buckwheat: 10
[21]; PREEMERGENCE, Rate 50 g/ha
  Plant response rating, Wild buckwheat: 0
[21]; PREEMERGENCE, Rate 200 g/ha
  Plant response rating (0 to 10 scale), Wild buckwheat: 3
[21]; Rate 200 g/ha, POSTEMERGENCE
  Plant response rating, Wild buckwheat: 10
[22]; POSTEMERGENCE, Rate 50 g/ha
  Plant response rating, Barnyardgrass: 7
[22]; PREEMERGENCE, Rate 50 g/ha
  Plant response rating, Barnyardgrass: 0
[22]; PREEMERGENCE, Rate 200 g/ha
  Plant response rating (0 to 10 scale), Barnyardgrass: 0
[22]; Rate 200 g/ha, POSTEMERGENCE
  Plant response rating, Barnyardgrass: 9
[23]; POSTEMERGENCE, Rate 50 g/ha
  Plant response rating, Barley: 2
[23]; PREEMERGENCE, Rate 50 g/ha
  Plant response rating, Barley: 0
[23]; PREEMERGENCE, Rate 200 g/ha
  Plant response rating (0 to 10 scale), Barley: 0
[23]; Rate 200 g/ha, POSTEMERGENCE
  Plant response rating, Barley: 3
